# From US20240165082A1, “ORALLY ADMINISTERED COMPOSITIONS FOR CANCER TREATMENT” (priority 2021, published 2024)
# Tests used:
# in vitro = details: human, pH 7.4
# Description: Phosphate-buffered saline (PBS, Cat. #10010 from ThermoFisher Scientific, Waltham, MA, USA) was adjusted to pH 7.4 and used as the receiver buffer. […] Tissues were received and stored at 4° C. until use. The tissue inserts were transferred to plates containing MATTEK SMI-100 culture medium using sterile technique and placed in a humidified incubator (37±1° C., 5% CO2) overnight for recovery prior to use, according to MATTEK protocols.
# The control was PBS, pH 7.4 buffer for baseline endogenous histamine. Reference B was histamine α,α,β,β-d4 dihydrochloride (1 mg/mL) in PBS, pH 7.4. Reference A was a 300 μL dose added to the apical side of the tissue. […] In each trial, a 100 μL sample was immediately collected as the 0-minute donor sample and was not replenished. The pharmaceutical composition, the control, and Reference B were dosed with 200 μL, and 10 μL donor samples and collected at each time point (0, 15, 30, 60, and 120 minutes) without replacement. Six replicates of each treatment were conducted. […] The assay plates were transferred to a humidified incubator (37±1° C., 5% CO2) between sampling time points. […] Upon completion of the study, all samples were stored at −80° C. until analysis by LC-MS/MS. […]
# The cumulative receiver concentration of each compound at each time point (Cc) was calculated as the sum of the measured concentration at that time point (Cm) and 0.2/5 of the measured concentrations at the previous time points (a 0.2 mL receiver sample out of the 5 mL total receiver volume was withdrawn and replaced at each time point, except for the final time point which was not replaced).
# The Papp for each compound was calculated as follows: Papp=(dCr/dt)×Vr/(A×Cn), where dCr/dt is the slope of the cumulative receiver concentration (in μM) vs. time (t); Vr is the volume of the receiver compartment (5 cm^3); A is the exposed surface area for permeation (0.6 cm^2); and Cn is the nominal concentration in the donor compartment (in μM).
# The recovery (%) at the final timepoint for histamine was calculated as follows: Recovery=100×((Vr120×Cr^final)+(Vd^initial×Cd^initial)+(Vd^15×Cd^15)+(Vd^30×Cd^30)+(Vd^60×Cd^60)+(Vd^final×Cd^final))/(Vd×Cn).
# The flux was calculated using the following equation: Flux(overall)=dCc/dt×Vr/A; where dCc/dt is the slope of the cumulative receiver concentration (in μM) vs. time (t); Vr is the volume of the receiver compartment (in cm^3); t is the duration of the flux period in the linear range (in minutes); and A is the diffusional surface area of the exposed tissue surface (0.6 cm^2).
# [1] = oral administration; inferred from Papp of Example 12
# Description: Previous studies of the drug permeability data in Caco-2 cells for predicting human drug absorption data plotted apparent permeability (Papp) values against the drug fraction absorbed in humans expressed as a percentage of the administered dose (FA). […] (Turco, et al. Toxicology in Vitro, 2010, 13-20).
recovery at 120 min (in vitro),Papp A→B at 120 min (in vitro),"Papp A→B at 120 min, 89969 μM (in vitro)","absorbed in the small intestine, amount of the administered dosage [1]",Compound
89.1 ± 5.2%,–,–,–,CC(C)NCC(O)COc1ccc(CC(N)=O)cc1 (centres unmarked) [atenolol]
93.6%,18.7 ± 1.5 ×10⁻⁶ cm/s,18.7 ± 1.5 ×10⁻⁶ cm/s,greater than 85%,Cl.Cl.NCCc1c[nH]cn1 [histamine dihydrochloride]
